Test results taken from patent US20070032461A1, “1,3 Aclyated 24-keto-vitamin d3 compounds and methods of use thereof” (BioXell S.p.A., priority 2003, published 2007).

What was measured:
[1] = Maximum tolerated dose (MTD) without inducing hypercalcemia, oral daily dosing for four days, serum calcium assay; type: in vivo, C57BL/6 mice
Description: The maximum tolerated dose of the vitamin D3 compounds of the invention were determined in eight week-old female C57BL/6 mice (3 mice/group) dosed orally (0.1 ml/mouse) with various concentrations of Vitamin D3 analogs daily for four days. Analogs were formulated in miglyol for a final concentration of 0.01, 0.03, 0.1 0.3, 1, 3, 10, 30, 100 and 300 μg/kg when given at 0.1 ml/mouse p.o. daily. Blood for serum calcium assay was drawn by tail bleed on day five, the final day of the study. Serum calcium levels were determined using a colorimetric assay (Sigma Diagnostics, procedure no. 597). The highest dose of analog tolerated without inducing hypercalcemia (serum calcium >10.7 mg /dl) was taken as the maximum tolerated dose (MTD).

[2] = test system: ILT3 surface molecule expression on immature dendritic cells; experiment: ILT3 upregulation on monocyte-derived immature dendritic cells, flow cytometric analysis; type: cell-based, human; conditions: immature dendritic cells cultured 24 hours with graded doses, up to 1000 nM
Description: Immature dendritic cells (DC) were prepared as described in Romani, N. et al. (Romani, N. et al. (1996) J. Immunol. Meth. 196:137). Briefly, peripheral blood mononuclear cells (PBMCs) were obtained from a buffy coat by ficoll-hypaque gradient (Pharmacia Biotec AB, Upsala, Sweden) and monocytes isolated from PBMCs by negative selected with a monocyte isolation kit (Milteny, Biotech, Bergish Gladblach, Germany). After isolation, monocytes were cultured for 6 to 7 days at a cell density of 1-2×10^6 in RPMI medium supplemented with 5% FetalClone I (Hyclone Laboratories, Logan, Utah) 2 mM L-glutamine, […], 1 mM sodium pyruvate and 1% nonessential amino acids, containing 800 U/ml GM-CSF (Mielogen 300, Schering-Plough) and 10 ng/ml interleukin (IL)-4 (PharMingen, San Diego, Calif.). Every other day, approximately 20% of the medium was removed and replaced by the same volume of fresh medium containing GM-CSF and IL-4.
After 6 to 7 days of culture, non-adherent cells (representing immature Dendritic Cells) were harvested and cultured for 24 hours in the presence of graded doses of the following vitamin D compounds: 1,25(OH)2D3; 1,3-O-Diacetyl-1,25 Dihydroxy-16-ene-24-Keto-19-nor Cholecalciferol (compound (2)); and the compounds Mycophenolate Mofetil (MMF) and Dexamethasone (DEX).
Immunoglobulin-Hike transcript-3 upregulation was evaluated by flow cytometric analysis. Briefly, cells were preincubated with […] human IgG (Sigma Chemical, St. Louis, Mo.) and subsequently stained with anti-human ILT3 antibody (see, e.g., Cella, M. et al. (1997) J. Exp. Med. 185:1743) followed by anti-mouse IgG-phycoerithryn (Jackson). Cells were then analyzed with a FACScan® flow cytometer using a Cell Quests software program (both from Beckton Dickinson, Mountain View, Calif.).

[3] = test system: IFN-γ production in MLR (allogeneic PBMC); experiment: IFN-γ production by allogeneic T cell activation in the mixed leukocyte response (MLR), ELISA; type: cell-based; conditions: 120 h, MLR of allogeneic PBMC from 2 donors, 5 days, read-out: INF-γ IC50
Description: Immature dendritic cells (DC) were prepared as described in Romani, N. et al. (Romani, N. et al. (1996) J. Immunol. Meth. 196:137). IFN-γ production by allogeneic T cell activation in the mixed leukocyte response (MLR) was determined as described in Penna, G., et al., J. Immunol., 164: 2405-2411 (2000).
Briefly, peripheral blood mononuclear cells (PBMC) were separated from buffy coats by Ficoll gradient and the same number (3×10^5) of allogeneic PBMC from 2 different donors were co-cultured in 96-well flat-bottom plates. After 5 days, IFN-γ production in the MLR assay was measured by ELISA and the results expressed as amount (nM) of test compound required to induce 50% inhibition of IFN-γ production (IC50).

[4] = female C57BL/6 mice, p.o. daily for four days, highest dose without hypercalcemia (serum calcium >10.7 mg/dl)

Molecule	MTD (mice) [1, 4] [µg/kg]	ILT3 expression on cell surface [2]	IC50 [3] [pM]	MTD relative to compound (1) ([1]; mice, oral, ratio of the MTD of compound (2) to that of the corresponding dihydroxy compound (1))	MTD at 4 days ([1]; mouse, po, female C57BL/6 mice, p.o. daily for four days, highest dose without hypercalcemia (serum calcium >10.7 mg/dl)) [µg/kg]
1,25(OH)2D3	1	upregulated			
COc1c(C)c2c(c(O)c1C/C=C(\C)CCC(=O)OCCN1CCOCC1)C(=O)OC2 [MMF, Mycophenolate Mofetil]		fail to upregulate			
CC(=O)O[C@@H]1CC(=C/C=C2\CCC[C@]3(C)C([C@H](C)CCC(=O)C(C)(C)O)=CCC23)C[C@@H](OC(C)=O)C1 (some centres unmarked) [Compound (2), 1,3-O-Diacetyl-1,25-Dihydroxy-16-ene-24-Keto-19-nor-Cholecalciferol]		upregulated	8	more than 300 times	> 300
CC(CCC(=O)C(C)(C)O)C1=CCC2C(=CC=C3CC(O)CC(O)C3)CCCC12C (centres unmarked) [(1), 1,25-dihydroxy-16-ene-24-keto-19-nor-cholecalciferol]	1				
